Patent US20030086952A1, “Highhly concentrated emulsions of organic compounds and methos of use” (priority 2001, published 2003)
Entries after “also recorded” stand apart in the source; their conditions may differ. Marks after values point to notes of the source that are not given here.

Key:
Type in all cases: physicochemical
[1] = Production of concentrated Yucca shidegera saponin emulsions in water (content reached); conditions: for Ratio of saponin to emulsified molecule (by mass) / Content (by mass) of molecule in emulsion: Yucca shidegera saponin emulsion in water; for Content (by mass) of molecule in emulsion: mass fraction
Protocol: (§1) The concentrated emulsions readily re-disperse upon dilution in water to working concentrations of interest. The final concentration of saponin with respect to the organic molecule is easily obtainable at 1:50 or 1:100 w/w, or even less. The shelf life of the concentrated emulsions, either at room temperature (about 25° C.) or at refrigerator temperature (about 4° C.) is at least 1 year, although separation of an emulsion, once stably formed, has not been observed.
mulsions of some aqueous-recalcitrant compounds were prepared in water using Yucca shidegera extracts containing about 12-14% saponin, as an emulsifying agent. The saponin preparations were obtained from Danco Natural Products, Pine Valley, Calif., and are sold under the trade names Pure Yucca (about 7-14% saponin and Yucca Ultra (about 10-11% saponin). These preparations had been filtered by the supplier to remove any fibers which could interfere with the emulsification process. The components were combined as follows, using D-limonene as an example.
(§2) D-limonene (B. F. Goodrich/Kalama Chemicals, Kalama, Wash.) in the amount of 50 grams was added directly to a clean glass container. To this, 1.6 grams of yucca saponin was added. The glass container was covered tightly and agitated vigorously. A poor, partially opaque solution resulted. […] 18.4 grams water was then added such that the total weight of the three components was 70 grams. The mixture was agitated again vigorously in a capped container. A viscous, white and truly opaque emulsion resulted. […] To this, another 30 grams limonene was added while mixing to form 100 g final emulsion. The final concentration of D-limonene in the emulsion was 80% by weight. An additional 10 grams of D-limonene can be to bring the final concentration to 90% by weight.
Likewise, other organic compounds can be emulsified by combining about 50 grams of the organic compound with the fraction of saponin indicated in Table 1 and water in a sufficient amount to produce an emulsion upon mixing of the three components. Following formation of the emulsion, the amount of organic compound can be increased as desired.

[2] = Stability of the saponin emulsions (stable emulsion formed, phase separation, recrystallizing, shelf life); conditions: for formation of a stable emulsion: with yucca saponin and water
Protocol: as §2, with “vigorously.” for “vigorously. A poor, partially opaque solution resulted.”, “container.” for “container. A viscous, white and truly opaque emulsion resulted.”
(§3) It is worth noting that vanillin is a solid at room termperature. The vanillin emulsion was prepared by first heating vanillin to at least 81° C. in order to melt it, then adding the other components.

[3] = Re-dilution of the concentrated emulsions in water; conditions: concentrated emulsion diluted in water
Protocol: as §1
Furthermore, no two of the three components were able to form an emulsion on their own under the stated conditions. Emulsions were only possible with all three components.
as §3

Row | Compound | Ratio of saponin to emulsified molecule (by mass) [1] | Content (by mass) of molecule in emulsion [1] | formation of a stable emulsion [2] | other results
1 | C=C(C)C1CC=C(C)CC1 (single isomer, unassigned; (+)) [(+) limonene] | 1/18* | .690 | – | –
2 | C=C(C)[C@H]1CC=C(C)CC1 [d-limonene, D-limonene] | 1/78 | .909 | stable emulsion | phase separation of emulsion ([2]; ambient temperature, 50:12:1 D-limonene:water:saponin): will not undergo phase separation for up to two weeks; concentration of organic compound in the emulsion ([1]; stable saponin emulsion in water, two step mixing): 80 % by weight; dilution of emulsion in water [3]: readily diluted up to eighty-fold
3 | COc1cc(/C=C/C=O)cc(OC)c1O [sinapaldehyde] | – | – | did not form stable emulsions; also recorded: stable emulsions were not obtained | –
4 | COc1cc(/C=C/C=O)ccc1O [coniferaldehyde] | – | – | did not form stable emulsions; also recorded: stable emulsions were not obtained | –
5 | CC/C=C\CC1C(=O)CCC1CC(=O)OC (stereo not drawn) [methyl jasmonate] | – | – | did not form stable emulsions | –
6 | cedryl acetate | 1/196 | .794 | – | –
7 | C=CCc1ccc(O)c(OC)c1 [eugenol] | – | – | did not form stable emulsions; also recorded: stable emulsions were not obtained | –
8 | O=C(OCc1ccccc1)c1ccccc1 [benzyl benzoate] | 1/55 | .534 | – | –
9 | O=CC=Cc1ccccc1 [cinnamaldehyde] | 1/50 | .899 | – | –
10 | COc1cc(C=O)ccc1O [vanillin] | 1/34 | .566 | – | stability of emulsion without recrystallizing ([2]; room temperature, prepared from melt (>81° C.)): stable at room temperature without recrystallizing
